Source: patent publication US12528791B2 (priority 2019, dated 2026)

Legend:
THR-β/RXR-α = biological target: T1, THR-β/RXR-α (Homo sapiens, UniProt P10828); assay type: biochemical; details: RXR heterodimer assay; compound activity normalized to T3 for THR-β/RXR-α and THR-α/RXR-α
T1 sequence (P10828 202-461 limits assumed): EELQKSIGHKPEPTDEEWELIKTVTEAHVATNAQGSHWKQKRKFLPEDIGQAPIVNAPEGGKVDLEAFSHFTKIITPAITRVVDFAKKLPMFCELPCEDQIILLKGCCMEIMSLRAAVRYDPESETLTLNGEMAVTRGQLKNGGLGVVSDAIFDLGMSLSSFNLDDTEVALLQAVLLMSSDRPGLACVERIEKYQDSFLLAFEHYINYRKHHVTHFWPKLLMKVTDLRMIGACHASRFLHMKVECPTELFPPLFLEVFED
T1 sequence (P19793 225-462 partner limits assumed): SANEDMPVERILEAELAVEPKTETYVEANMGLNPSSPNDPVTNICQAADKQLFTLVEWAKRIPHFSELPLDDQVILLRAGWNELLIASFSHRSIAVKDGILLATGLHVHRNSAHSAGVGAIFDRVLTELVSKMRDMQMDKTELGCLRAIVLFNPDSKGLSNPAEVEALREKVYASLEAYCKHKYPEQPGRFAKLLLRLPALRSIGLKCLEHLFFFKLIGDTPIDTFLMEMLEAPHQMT
T1 sequence (Q15596 679-703 partner limits assumed): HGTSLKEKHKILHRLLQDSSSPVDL

TR beta-LBD = biological target: T2, TR beta-LBD (Homo sapiens, UniProt P10828); assay type: biochemical; details: TR-FRET assay; THR beta over THR alpha, derived from T3-selectivity normalized data
T2 sequence (P10828 217-461 limits assumed): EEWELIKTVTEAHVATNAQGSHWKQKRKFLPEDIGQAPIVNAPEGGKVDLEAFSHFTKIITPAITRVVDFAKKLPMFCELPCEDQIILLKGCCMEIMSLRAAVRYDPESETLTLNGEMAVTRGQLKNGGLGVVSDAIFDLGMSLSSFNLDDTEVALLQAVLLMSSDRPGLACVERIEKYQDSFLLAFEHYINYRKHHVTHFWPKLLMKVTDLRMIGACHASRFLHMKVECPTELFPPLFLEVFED

| SMILES | THRβ-Selectivity (THR-β/RXR-α) | THRβ-Selectivity (TR beta-LBD) |
| --- | --- | --- |
| Cc1n[nH]c2ncc(Oc3c(Cl)cc(-n4nc(C#N)c(=O)[nH]c4=O)cc3Cl)cc12 [Example 7, 2-(3,5-dichloro-4-((3-methyl-1H-pyrazolo[3,4-b]pyridin-5-yl)oxy)phenyl)-3,5-dioxo-2,3,4,5-tetrahydro-1,2,4-triazine-6-carbonitrile] | 9.7 | 9.5 |
| Cn1cnc2cnc(Oc3c(Cl)cc(NC(=O)c4noc(=O)[nH]4)cc3Cl)cc21 [Example 11, N-(3,5-dichloro-4-((1-methyl-1H-imidazo[4,5-c]pyridin-6-yl)oxy)phenyl)-5-oxo-4,5-dihydro-1,2,4-oxadiazole-3-carboxamide] | 10.4 | >30.5 |
| N#Cc1nn(-c2cc(Cl)c(Oc3ccc4ncn(C5CC5)c4c3)c(Cl)c2)c(=O)[nH]c1=O [Example 23, 2-(3,5-dichloro-4-((1-cyclopropyl-1H-benzo[d]imidazol-6-yl)oxy)phenyl)-3,5-dioxo-2,3,4,5-tetrahydro-1,2,4-triazine-6-carbonitrile] | 5.7 | 20.2 |
| Cc1n[nH]c2ccc(Oc3c(Cl)cc(-c4n[nH]c(=O)[nH]c4=O)cc3Cl)cc12 [Example 5, 6-(3,5-dichloro-4-((3-methyl-1H-indazol-5-yl)oxy)phenyl)-1,2,4-triazine-3,5(2H,4H)-dione] | 3.1 | 15.6 |
| O=C(Nc1cc(Cl)c(Oc2ccc3nc(C4CC4)ccc3c2)c(Cl)c1)c1noc(=O)[nH]1 [Example 24, N-(3,5-dichloro-4-((2-cyclopropylquinolin-6-yl)oxy)phenyl)-5-oxo-4,5-dihydro-1,2,4-oxadiazole-3-carboxamide] | 4.8 | 8.1 |
| CC1(n2cnc3ccc(Oc4c(Cl)cc(NC(=O)c5noc(=O)[nH]5)cc4Cl)cc32)CC1 [Example 43, N-(3,5-dichloro-4-((1-(1-methylcyclopropyl)-1H-benzo[d]imidazol-6-yl)oxy)phenyl)-5-oxo-4,5-dihydro-1,2,4-oxadiazole-3-carboxamide] | 11.8 |  |
| O=C(Nc1cc(Cl)c(Oc2ccc3nccc(C4CC4)c3c2)c(Cl)c1)c1noc(=O)[nH]1 [Example 51, N-(3,5-dichloro-4-((4-cyclopropylquinolin-6-yl)oxy)phenyl)-5-oxo-4,5-dihydro-1,2,4-oxadiazole-3-carboxamide] | 8.1 |  |
| O=C(Nc1cc(Cl)c(Oc2ccc3ncn(C4(C(F)(F)F)CC4)c3c2)c(Cl)c1)c1noc(=O)[nH]1 [Example 53, N-(3,5-dichloro-4-((1-(1-(trifluoromethyl)cyclopropyl)-1H-benzo[d]imidazol-6-yl)oxy)phenyl)-5-oxo-4,5-dihydro-1,2,4-oxadiazole-3-carboxamide] | 14.7 |  |
| Cn1cnc2ccc(Oc3c(Cl)cc(-n4nc(C#N)c(=O)[nH]c4=O)cc3Cl)cc21 [Example 19, 2-(3,5-dichloro-4-((1-methyl-1H-benzo[d]imidazol-6-yl)oxy)phenyl)-3,5-dioxo-2,3,4,5-tetrahydro-1,2,4-triazine-6-carbonitrile] | 5.6 | 38.0 |
| Cc1n[nH]c2ccc(Oc3c(Cl)cc(NC(=O)c4noc(=O)[nH]4)cc3Cl)cc12 [Example 4, N-(3,5-dichloro-4-((3-methyl-1H-indazol-5-yl)oxy)phenyl)-5-oxo-4,5-dihydro-1,2,4-oxadiazole-3-carboxamide] | 6.6 | 18.8 |
| CCc1c[nH]c2ccc(Oc3c(Cl)cc(-n4nc(C#N)c(=O)[nH]c4=O)cc3Cl)cc12 [Example 59, 2-(3,5-dichloro-4-((3-ethyl-1H-indol-5-yl)oxy)phenyl)-3,5-dioxo-2,3,4,5-tetrahydro-1,2,4-triazine-6-carbonitrile] | 8.4 |  |
| CC(C)n1cnc2ccc(Oc3c(Cl)cc(-n4nc(C#N)c(=O)[nH]c4=O)cc3Cl)cc21 [Example 21, 2-(3,5-dichloro-4-((1-isopropyl-1H-benzo[d]imidazol-6-yl)oxy)phenyl)-3,5-dioxo-2,3,4,5-tetrahydro-1,2,4-triazine-6-carbonitrile] | 10.9 | 12.9 |
| N#Cc1nn(-c2cc(Cl)c(Oc3ccc4nccc(C5CC5)c4c3)c(Cl)c2)c(=O)[nH]c1=O [Example 52, 2-(3,5-dichloro-4-((4-cyclopropylquinolin-6-yl)oxy)phenyl)-3,5-dioxo-2,3,4,5-tetrahydro-1,2,4-triazine-6-carbonitrile] | 11.9 |  |
| CCc1ccnc2ccc(Oc3c(Cl)cc(-n4nc(C#N)c(=O)[nH]c4=O)cc3Cl)cc12 [Example 35, 2-(3,5-dichloro-4-((4-ethylquinolin-6-yl)oxy)phenyl)-3,5-dioxo-2,3,4,5-tetrahydro-1,2,4-triazine-6-carbonitrile] | 10.2 |  |
| CC(C)(C)n1cnc2ccc(Oc3c(Cl)cc(-n4nc(C#N)c(=O)[nH]c4=O)cc3Cl)cc21 [Example 38, 2-(4-((1-(tert-butyl)-1H-benzo[d]imidazol-6-yl)oxy)-3,5-dichlorophenyl)-3,5-dioxo-2,3,4,5-tetrahydro-1,2,4-triazine-6-carbonitrile] | 8.4 |  |
| Cc1n[nH]c2ccc(Oc3c(Cl)cc(-n4nc(C#N)c(=O)[nH]c4=O)cc3Cl)cc12 [Example 3, 2-(3,5-dichloro-4-((3-methyl-1H-indazol-5-yl)oxy)phenyl)-3,5-dioxo-2,3,4,5-tetrahydro-1,2,4-triazine-6-carbonitrile] | 8.5 | 32.0 |
| O=C(Nc1cc(Cl)c(Oc2ccc3ncn(C4(C(F)F)CC4)c3c2)c(Cl)c1)c1noc(=O)[nH]1 [Example 55, N-(3,5-dichloro-4-((1-(1-(difluoromethyl)cyclopropyl)-1H-benzo[d]imidazol-6-yl)oxy)phenyl)-5-oxo-4,5-dihydro-1,2,4-oxadiazole-3-carboxamide] | 14.3 |  |
| O=C(Nc1cc(Cl)c(Oc2ccc3ncn(C4CC4)c3c2)c(Cl)c1)c1noc(=O)[nH]1 [Example 22, N-(3,5-dichloro-4-((1-cyclopropyl-1H-benzo[d]imidazol-6-yl)oxy)phenyl)-5-oxo-4,5-dihydro-1,2,4-oxadiazole-3-carboxamide] | 5.9 | >253.0 |
| CC1(n2cnc3ccc(Oc4c(Cl)cc(-n5nc(C#N)c(=O)[nH]c5=O)cc4Cl)cc32)CC1 [Example 44, 2-(3,5-dichloro-4-((1-(1-methylcyclopropyl)-1H-benzo[d]imidazol-6-yl)oxy)phenyl)-3,5-dioxo-2,3,4,5-tetrahydro-1,2,4-triazine-6-carbonitrile] | 10.1 |  |
| CCc1ccnc2ccc(Oc3c(Cl)cc(NC(=O)c4noc(=O)[nH]4)cc3Cl)cc12 [Example 36, N-(3,5-dichloro-4-((4-ethylquinolin-6-yl)oxy)phenyl)-5-oxo-4,5-dihydro-1,2,4-oxadiazole-3-carboxamide] | 7.1 |  |
| N#Cc1nn(-c2cc(Cl)c(Oc3ccc4nc5n(c4c3)CCCO5)c(Cl)c2)c(=O)[nH]c1=O [Example 40, 2-(3,5-dichloro-4-((3,4-dihydro-2H-benzo[4,5]imidazo[2,1-b][1,3]oxazin-7-yl)oxy)phenyl)-3,5-dioxo-2,3,4,5-tetrahydro-1,2,4-triazine-6-carbonitrile] | 11.6 |  |
| O=C(Nc1cc(Cl)c(Oc2ccc3nc4n(c3c2)CCCO4)c(Cl)c1)c1noc(=O)[nH]1 [Example 39, N-(3,5-dichloro-4-((3,4-dihydro-2H-benzo[4,5]imidazo[2,1-b][1,3]oxazin-7-yl)oxy)phenyl)-5-oxo-4,5-dihydro-1,2,4-oxadiazole-3-carboxamide] | 5.1 |  |
| N#Cc1nn(-c2cc(Cl)c(Oc3ccc4nc(C5CC5)ccc4c3)c(Cl)c2)c(=O)[nH]c1=O [Example 26, 2-(3,5-dichloro-4-((2-cyclopropylquinolin-6-yl)oxy)phenyl)-3,5-dioxo-2,3,4,5-tetrahydro-1,2,4-triazine-6-carbonitrile] | 3.3 |  |
| CC(C)(C)n1cnc2ccc(Oc3c(Cl)cc(NC(=O)c4noc(=O)[nH]4)cc3Cl)cc21 [Example 37, N-(4-((1-(tert-butyl)-1H-benzo[d]imidazol-6-yl)oxy)-3,5-dichlorophenyl)-5-oxo-4,5-dihydro-1,2,4-oxadiazole-3-carboxamide] | 8.3 |  |
| N#Cc1nn(-c2cc(Cl)c(Oc3ccc4ncn(C5(C(F)F)CC5)c4c3)c(Cl)c2)c(=O)[nH]c1=O [Example 56, 2-(3,5-dichloro-4-((1-(1-(difluoromethyl)cyclopropyl)-1H-benzo[d]imidazol-6-yl)oxy)phenyl)-3,5-dioxo-2,3,4,5-tetrahydro-1,2,4-triazine-6-carbonitrile] | 9.0 |  |
| CC(C)n1c(=O)[nH]c2ccc(Oc3c(Cl)cc(NC(=O)c4noc(=O)[nH]4)cc3Cl)cc21 [Example 30, N-(3,5-dichloro-4-((3-isopropyl-2-oxo-2,3-dihydro-1H-benzo[d]imidazol-5-yl)oxy)phenyl)-5-oxo-4,5-dihydro-1,2,4-oxadiazole-3-carboxamide] | 9.9 |  |
